Results reported in BindingDB's records for patent US117808 (H. Lundbeck, 2023).
Values joined by “and” are separate entries in the source; they are usually repeats but may differ in a detail not shown here. Equal values may be shown once.

How the values were obtained:
[1] = molecular target: Leucine-rich repeat serine/threonine-protein kinase 2 (Homo sapiens, UniProt Q5S007); experiment: LRRK2 Wild-Type and G2019S Kinase Activity Assay
Experimental: (§1) The LRRK2 kinase was obtained from Invitrogen (Life Technologies Corporation) and comprises residue 970 to 2527 of the full length human wild-type LRRK2 kinase, or a similar sequence with the G2019S mutation. As discussed above, this mutation increases the kinase activity relative to the wild type. The kinase reactions were performed in a 20 uL volume in 384-well plates. The kinase reaction buffer consisted of 50 mM Tris pH 8.5, 0.01% BRIJ-35, 10 mM MgCl2, 1 mM EGTA, and 2 mM DTT.In the assay, 1 nM LRRK2 WT or 250 pM LRRK2 G2019S kinase in kinase reaction buffer was incubated with the test compound (typically at 0 to 30 uM) for 30 minutes before the kinase reaction was initiated by addition of 1.3 mM ATP and 0.4 uM fluorescein-LRRKtide. The reaction mixture (20 ul total volume) was incubated for 3.5 h (for LRRK2 WT) and 3 h (for LRRK2 G2019S) at 30 C., before the reaction was terminated by addition of 10 mM EDTA and 1 nM terbium-labelled anti-phospho-LRRKtide antibody (final volume […]). The mixture was further incubated for 30 minutes at RT. TR-FRET was measured by excitation of the terbium-donor with 340 nm light and subsequent (delay time 100 us) measurement of terbium and fluorescein emission at 495 nm and 520 nm, respectively, over a time window of 1000 us. The measurement was repeated 30 times for fluorescein and 30 times for terbium emission with a 1000 us time window between repeats. TR-FRET measurements were performed on a Biotek Synergy plate. The TR-FRET signal was calculated as the emission-ratio at 520 nm over 495 nm.

[2] = molecular target: Leucine-rich repeat serine/threonine-protein kinase 2 [G2019S] (Homo sapiens, UniProt Q5S007, G2019S); experiment: LRRK2 Wild-Type and G2019S Kinase Activity Assay
Sequence of Leucine-rich repeat serine/threonine-protein kinase 2 [G2019S] (Q5S007 whole entry G2019S): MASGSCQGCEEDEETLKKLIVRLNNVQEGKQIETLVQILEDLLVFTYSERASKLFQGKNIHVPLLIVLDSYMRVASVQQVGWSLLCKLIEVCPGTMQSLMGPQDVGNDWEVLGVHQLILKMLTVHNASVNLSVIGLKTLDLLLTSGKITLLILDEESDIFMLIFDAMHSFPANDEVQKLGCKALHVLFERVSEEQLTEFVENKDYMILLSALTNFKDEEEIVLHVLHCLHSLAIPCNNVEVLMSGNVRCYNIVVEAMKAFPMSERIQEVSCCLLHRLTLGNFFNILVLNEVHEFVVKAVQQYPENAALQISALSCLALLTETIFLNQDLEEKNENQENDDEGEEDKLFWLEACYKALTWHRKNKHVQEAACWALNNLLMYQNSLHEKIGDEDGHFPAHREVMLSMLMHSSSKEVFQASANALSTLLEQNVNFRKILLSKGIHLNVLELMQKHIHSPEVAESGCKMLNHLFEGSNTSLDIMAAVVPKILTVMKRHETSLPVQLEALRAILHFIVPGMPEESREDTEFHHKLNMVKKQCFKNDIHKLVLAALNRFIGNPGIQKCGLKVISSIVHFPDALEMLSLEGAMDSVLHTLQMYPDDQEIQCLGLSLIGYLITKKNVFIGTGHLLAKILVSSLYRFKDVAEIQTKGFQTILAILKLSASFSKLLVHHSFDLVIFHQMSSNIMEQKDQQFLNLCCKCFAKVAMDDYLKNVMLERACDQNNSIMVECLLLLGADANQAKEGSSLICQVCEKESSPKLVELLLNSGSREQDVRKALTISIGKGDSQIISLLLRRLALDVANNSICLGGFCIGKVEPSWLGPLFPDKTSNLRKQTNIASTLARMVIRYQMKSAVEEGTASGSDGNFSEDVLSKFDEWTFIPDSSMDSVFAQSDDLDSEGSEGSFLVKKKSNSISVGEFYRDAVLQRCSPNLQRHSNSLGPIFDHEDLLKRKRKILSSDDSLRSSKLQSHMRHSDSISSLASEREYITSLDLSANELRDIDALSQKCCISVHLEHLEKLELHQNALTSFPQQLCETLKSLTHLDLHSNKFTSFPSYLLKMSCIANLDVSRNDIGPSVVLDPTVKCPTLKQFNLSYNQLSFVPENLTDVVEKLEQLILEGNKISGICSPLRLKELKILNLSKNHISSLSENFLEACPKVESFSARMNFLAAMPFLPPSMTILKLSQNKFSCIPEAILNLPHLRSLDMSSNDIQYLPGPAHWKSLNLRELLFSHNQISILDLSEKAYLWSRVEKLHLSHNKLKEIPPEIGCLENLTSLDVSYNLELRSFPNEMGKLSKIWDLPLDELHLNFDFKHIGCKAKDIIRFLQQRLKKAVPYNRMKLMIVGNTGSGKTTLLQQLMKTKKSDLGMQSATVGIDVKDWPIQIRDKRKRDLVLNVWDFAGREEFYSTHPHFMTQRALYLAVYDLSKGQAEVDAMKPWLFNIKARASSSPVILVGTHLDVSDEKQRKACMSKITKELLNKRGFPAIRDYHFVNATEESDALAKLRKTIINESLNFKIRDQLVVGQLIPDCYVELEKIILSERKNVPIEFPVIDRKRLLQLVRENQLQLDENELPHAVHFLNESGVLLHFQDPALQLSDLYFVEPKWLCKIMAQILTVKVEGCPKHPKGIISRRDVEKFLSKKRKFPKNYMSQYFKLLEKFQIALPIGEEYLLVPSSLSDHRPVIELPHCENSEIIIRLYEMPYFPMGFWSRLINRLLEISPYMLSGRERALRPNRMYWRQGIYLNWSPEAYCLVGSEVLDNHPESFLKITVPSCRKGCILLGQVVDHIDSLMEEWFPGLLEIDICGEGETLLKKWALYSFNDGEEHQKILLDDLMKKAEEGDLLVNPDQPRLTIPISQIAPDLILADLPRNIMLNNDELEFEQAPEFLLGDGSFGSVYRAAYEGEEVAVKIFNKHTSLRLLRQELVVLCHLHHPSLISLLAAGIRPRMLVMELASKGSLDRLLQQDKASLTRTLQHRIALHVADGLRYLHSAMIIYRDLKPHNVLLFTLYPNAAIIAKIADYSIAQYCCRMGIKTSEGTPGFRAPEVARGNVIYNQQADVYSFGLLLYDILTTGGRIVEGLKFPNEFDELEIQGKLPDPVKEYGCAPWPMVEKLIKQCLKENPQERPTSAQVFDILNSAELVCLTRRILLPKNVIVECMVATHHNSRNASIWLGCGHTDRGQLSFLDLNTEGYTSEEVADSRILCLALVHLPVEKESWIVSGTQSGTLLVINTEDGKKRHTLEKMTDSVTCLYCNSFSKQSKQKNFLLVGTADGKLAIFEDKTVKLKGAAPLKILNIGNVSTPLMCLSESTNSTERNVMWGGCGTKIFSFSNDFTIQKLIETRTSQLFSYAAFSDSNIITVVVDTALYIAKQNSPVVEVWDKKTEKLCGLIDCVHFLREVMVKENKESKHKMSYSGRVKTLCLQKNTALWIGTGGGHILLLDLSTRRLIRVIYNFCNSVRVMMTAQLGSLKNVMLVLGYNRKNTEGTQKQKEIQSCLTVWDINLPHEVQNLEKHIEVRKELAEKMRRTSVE
Experimental: as §1

Sequence of Leucine-rich repeat serine/threonine-protein kinase 2 (Q5S007 whole entry): as the sequence (Q5S007 whole entry G2019S) above, with S2019G counted along it

| Structure (SMILES) | IC50 [1] | IC50 [2] |
| --- | --- | --- |
| Cc1c2c(nn1[C@H]1CCCOC1)OCCCn1nc(Cl)c3cnc(nc31)N2 (single isomer, unassigned) [US11780851, Example 60] | 25 nM | 9 nM |
| Cc1c2c(nn1C1CCOCC1)OCCCn1nc(Br)c3cnc(nc31)N2 [US11780851, Example 6] | 8 nM | 2.2 nM |
| Cc1c2c(nn1CC1(C)COC1)OCCCn1nc(Cl)c3cnc(nc31)N2 [US11780851, Example 12] | 32 nM | 12 nM |
| Cc1c([N+](=O)[O-])c(OCCCn2nc(Cl)c3cnc(Cl)nc32)nn1C1CCOCC1 [US11780851, Example 15] | 9.6 nM and 6.8 nM |  |
| Cc1c2c(nn1[C@@H]1CCO[C@@H](C)C1)OCCCn1nc(Cl)c3cnc(nc31)N2 [US11780851, Example 19] | 13 nM | 3.9 nM |
| Cc1c2c(nn1C1CCOCC1)OCCCn1nc(Cl)c3cnc(nc31)N2 [US11780851, Example 20] | 9.8 nM | 2.4 nM |
| Cc1c2c(nn1[C@H]1CCOC[C@H]1C)OCCCn1nc(Cl)c3cnc(nc31)N2 [US11780851, Example 21] | 10 nM | 3.7 nM |
| Cc1c2c(nn1[C@@H]1CCOC[C@H]1C)OCCCn1nc(Cl)c3cnc(nc31)N2 [US11780851, Example 22] | 10 nM | 3.5 nM |
| Cc1c2c(nn1[C@H]1CCOC[C@@H]1C)OCCCn1nc(Cl)c3cnc(nc31)N2 [US11780851, Example 23] | 44 nM | 20 nM |
| Cc1c2c(nn1[C@@H]1CCCCOC1)OCCCn1nc(Cl)c3cnc(nc31)N2 [US11780851, Example 29] | 25 nM and 14 nM | 7.3 nM and 4.3 nM |
| Cc1c2c(nn1C1CCCCOC1)OCCCn1nc(Cl)c3cnc(nc31)N2 (centres undefined) [US11780851, Example 30] | 12 nM | 4 nM |
| Cc1c2c(nn1[C@H]1CCOC[C@@H]1F)OCCCn1nc(Cl)c3cnc(nc31)N2 [US11780851, Example 31] | 5.6 nM | 2.4 nM |
| Cc1c2c(nn1[C@@H]1CCOC[C@@H]1F)OCCCn1nc(Cl)c3cnc(nc31)N2 [US11780851, Example 32] | 15 nM | 6.1 nM |
| Cc1c2c(nn1C13CC(C(N)=O)(C1)C3)OCCCn1nc(Cl)c3cnc(nc31)N2 [US11780851, Example 33] | 18 nM | 5.9 nM |
| Cc1c2c(nn1C1(C(N)=O)CC1)OCCCn1nc(Cl)c3cnc(nc31)N2 [US11780851, Example 36] | 23 nM | 7.2 nM |
| Cc1c2c(nn1C1C3COCC31)OCCCn1nc(Cl)c3cnc(nc31)N2 (centres undefined) [US11780851, Example 38] | 28 nM | 11 nM |
| Cc1c2c(nn1C1CC1(F)F)OCCCn1nc(Cl)c3cnc(nc31)N2 (centres undefined) [US11780851, Example 39] | 19 nM | 7.8 nM |
| Cc1c2c(nn1[C@H]1CC1(F)F)OCCCn1nc(Cl)c3cnc(nc31)N2 [US11780851, Example 40] | 28 nM | 12 nM |

| Structure (SMILES) | IC50 [1] | IC50 [2] |
| --- | --- | --- |
| Cc1c([N+](=O)[O-])c(OCCCn2nc(Cl)c3cnc(Cl)nc32)nn1[C@H]1C[C@@H](C)O[C@@H](C)C1 [US11780851, Example 41] | 17 nM | 6.4 nM |
| Cc1c2c(nn1[C@@H]1CCOC(C)(C)C1)OCCCn1nc(Cl)c3cnc(nc31)N2 [US11780851, Example 43] | 17 nM | 5.3 nM |
| Cc1c2c(nn1C1CC3CCC(C1)O3)OCCCn1nc(Cl)c3cnc(nc31)N2 (centres undefined) [US11780851, Example 44] | 13 nM | 4.3 nM |
| Cc1c2c(nn1C1CCOC[C@@]1(C)F)OCCCn1nc(Cl)c3cnc(nc31)N2 (some centres undefined) [US11780851, Example 47] | 13 nM | 3.1 nM |
| Cc1c2c(nn1C1CCOC[C@]1(C)F)OCCCn1nc(Cl)c3cnc(nc31)N2 (some centres undefined) [US11780851, Example 48] | 90 nM | 18 nM |
| CO[C@H]1CC[C@H](n2nc3c(c2Br)Nc2ncc4c(Cl)nn(c4n2)CCCO3)CC1 [US11780851, Example 50] | 10 nM | 5.3 nM |
| Cc1c2c(nn1[C@H]1CCO[C@@H](C)C1)OCCCn1nc(Cl)c3cnc(nc31)N2 [US11780851, Example 51] | 11 nM | 3.6 nM |
| Cc1c2c(nn1[C@@H]1CCO[C@H](C)C1)OCCCn1nc(Cl)c3cnc(nc31)N2 [US11780851, Example 52] | 19 nM | 10 nM |
| Cc1c2c(nn1[C@H]1CCOC3(CC3)C1)OCCCn1nc(Cl)c3cnc(nc31)N2 [US11780851, Example 54] | 2.6 nM | 0.88 nM |
| CCc1c2c(nn1[C@@H]1CCOCC1F)OCCCn1nc(Cl)c3cnc(nc31)N2 (some centres undefined) [US11780851, Example 55] | 5.6 nM | 1.5 nM |
| CCc1c2c(nn1[C@H]1CCOCC1F)OCCCn1nc(Cl)c3cnc(nc31)N2 (some centres undefined) [US11780851, Example 56] | 4.9 nM | 2 nM |
| Cc1c2c(nn1[C@@H]1CCCOCC1)OCCCn1nc(Cl)c3cnc(nc31)N2 [US11780851, Example 59] | 17 nM | 6.2 nM |
| Cc1c2c(nn1[C@@H]1CCCOC1)OCCCn1nc(Cl)c3cnc(nc31)N2 [US11780851, Example 61] | 9.2 nM | 2.2 nM |
| F[C@@H]1COCC[C@H]1n1nc2c(c1Br)Nc1ncc3c(Cl)nn(c3n1)CCCO2 [US11780851, Example 62] | 17 nM | 5.9 nM |
| F[C@H]1COCC[C@@H]1n1nc2c(c1Br)Nc1ncc3c(Cl)nn(c3n1)CCCO2 [US11780851, Example 63] | 11 nM | 4 nM |
| Clc1nn2c3nc(ncc13)Nc1c(nn([C@H]3CCOC4(CC4)C3)c1Br)OCCC2 [US11780851, Example 64] | 11 nM | 5 nM |
| Clc1nn2c3nc(ncc13)Nc1c(nn([C@@H]3CCOC4(CC4)C3)c1Br)OCCC2 [US11780851, Example 65] | 4.8 nM | 1.7 nM |
